Read-outs that look alike come from different tables or passages of the source.
How the values were obtained:
[1] = target: T1, Recombinant Human 5′-Nucleotidase (CD73) (Homo sapiens, UniProt P21589); test: CD73 Enzyme Assay; type: biochemical
T1 construct: CHO derived CD73 (Trp27-Lys547), with a C-terminal 6-His tag; 6-His (C); purchased R&D 5795-EN; host or cells: CHO
T1 sequence (P21589 27-547): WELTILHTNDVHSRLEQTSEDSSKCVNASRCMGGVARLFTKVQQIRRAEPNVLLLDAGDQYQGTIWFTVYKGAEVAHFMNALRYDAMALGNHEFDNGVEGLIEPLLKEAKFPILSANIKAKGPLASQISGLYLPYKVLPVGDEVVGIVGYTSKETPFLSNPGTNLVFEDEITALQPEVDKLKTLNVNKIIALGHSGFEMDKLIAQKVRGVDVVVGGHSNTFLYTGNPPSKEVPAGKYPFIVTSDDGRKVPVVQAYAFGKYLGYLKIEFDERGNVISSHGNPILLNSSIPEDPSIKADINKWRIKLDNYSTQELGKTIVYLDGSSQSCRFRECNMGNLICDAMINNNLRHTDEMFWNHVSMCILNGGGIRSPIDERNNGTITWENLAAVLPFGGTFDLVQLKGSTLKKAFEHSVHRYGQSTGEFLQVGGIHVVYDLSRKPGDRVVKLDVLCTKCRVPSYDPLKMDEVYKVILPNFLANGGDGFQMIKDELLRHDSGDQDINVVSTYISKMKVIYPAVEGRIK
From the text: Soluble recombinant CD73 catalyzes the conversion of adenosine monophosphate (AMP) to adenosine and inorganic phosphate. The phosphate detection reagent, PiColorLock™ (Innova Bioscience, Cat #303-0125) is based on the change in absorbance of the dye malachite green in the presence of inorganic phosphate (Pi) and this property can be exploited to measure any enzyme that generates Pi. Recombinant Human 5′-Nucleotidase (CD73) (R&D #5795-EN, CHO derived CD73 (Trp27-Lys547), with a C-terminal 6-His tag) was used in the enzymatic assay. This assay was run in a 384-well plate format (Corning® NBS™ 384 well plates, Cat #3640). The basic assay procedure involves two steps: 1) Enzyme reaction: The CD73 enzyme (R&D #5795-EN) is incubated in the presence or absence of compounds. AMP (sigma, cat #01930) is added to start the […] reaction. 2) Detection step: Gold mix is added to the assay system, then stabilizers are added. After incubation the absorbance of the solution is read at OD 635 nm. The recorded OD signal is proportional to the enzyme activity.
Briefly, 25 μl human CD73 (0.5 nM final concentration) in the enzymatic buffer solutions (20 mM Tris, 25 mM NaCl, 1 mM MgCl2, pH 7.5, 0.005% Tween-20) were mixed with various concentrations of the test compound (dissolved in 100% DMSO). These solutions were incubated for 15 min at 25° C., and subsequently 25 μl AMP (30 μM final concentration) was added to start the reaction. The final reaction mixture of enzyme-substrate-compound was incubated for 20 min at 37° C. Meanwhile ‘Gold mix’ was prepared shortly before use by adding 1/100 vol. of accelerator to the PiColorLock™ Gold reagent. 12 μL/well of the ‘Gold mix’ was added to assay plate containing 50 μL enzyme reaction buffer and incubated at 25° C. for 5 min. 5 μL/well stabilizer was added to the assay plate and incubated at 25° C. for 30 min. The absorbance of the well solutions was measured at 635 nm on a Spark 10M instrument (TECAN).
The percent (%) inhibition at each concentration of a compound was calculated relative to the OD value in the Max and Min control wells contained within each assay plate. The Max control wells contained enzyme and substrate as 0% inhibition, and the M control wells only contained substrate without enzyme as 100% inhibition. The concentrations and percent inhibition values for a test compound are plotted and the concentration of the compound required to achieve 50% inhibition (IC50) was determined with a four-parameter logistic dose response equation.

[2] = target: T2, Cell surface CD73 of U87 MG human glioblastoma cells (Homo sapiens, UniProt P21589); test: CD73 Cellular Assay; type: cell-based; details: 5000 cells per well, 30 μM AMP substrate, read-out: Potency (IC50, CD73 cellular assay)
T2 construct: Cell surface CD73 catalyzes the conversion of adenosine monophosphate (AMP) to adenosine and inorganic phosphate; endogenous in cells; host or cells: U87 MG human glioblastoma cells
T2 sequence (P21589 27-549): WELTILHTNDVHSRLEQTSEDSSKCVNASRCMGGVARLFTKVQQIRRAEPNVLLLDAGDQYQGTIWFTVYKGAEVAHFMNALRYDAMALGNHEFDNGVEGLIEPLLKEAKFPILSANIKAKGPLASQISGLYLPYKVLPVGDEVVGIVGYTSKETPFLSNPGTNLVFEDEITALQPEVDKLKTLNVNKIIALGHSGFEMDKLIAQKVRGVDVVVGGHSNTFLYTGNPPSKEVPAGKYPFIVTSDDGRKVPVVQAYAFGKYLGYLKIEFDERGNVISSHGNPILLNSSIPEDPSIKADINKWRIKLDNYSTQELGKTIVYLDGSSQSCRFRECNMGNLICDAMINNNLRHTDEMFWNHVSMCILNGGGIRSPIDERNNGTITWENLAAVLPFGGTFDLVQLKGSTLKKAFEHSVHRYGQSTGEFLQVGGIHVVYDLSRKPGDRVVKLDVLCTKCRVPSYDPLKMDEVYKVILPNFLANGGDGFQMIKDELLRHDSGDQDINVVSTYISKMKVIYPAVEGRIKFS
Procedure: Cell surface CD73 catalyzes the conversion of adenosine monophosphate (AMP) to adenosine and inorganic phosphate. U87 MG human glioblastoma cells express high level of CD73. Cells are treated with compounds in a 96-well assay plate and supernatants are collected into a 384-well detection plate. The concentration of inorganic phosphate (Pi) in the supernatants is determined using the phosphate detection reagent, PiColorLock™ (Innova Bioscience, Cat #303-0125) following the manufacturer's instructions.
Briefly, on the day of the assay, U87 MG cells were harvested and resuspended in assay buffer which consisted of 20 mM HEPES, pH=7.4, 137 mM NaCl, 5.4 mM KCl, 1.3 mM CaCl2, 4.2 mM NaHCO3 and 0.1% glucose. To test the effect of compounds on cellular CD73 enzymatic activity, 500 nL/well of compounds dissolved in DMSO were added to a 96-well TC-treated microplate (Corning #3599). Next, 80 μL/well of U87 MG cells in assay buffer were added to assay plate. After 30 minutes of incubation in an atmosphere of 5% CO2 at 37° C., 20 μL/well of 150 μM AMP (Adenosine 5′-monophosphate monohydrate, Sigma, Cat #01930) in assay buffer was added to assay plate. Final assay conditions consisted of 5000 cells per well in 0.5% DMSO and 30 μM AMP substrate. After 50 minutes of incubation in an atmosphere of 5% CO2 at 37° C., 50 μL/well of supernatant was transferred to the 384-well detection plate (Corning® NBS™ 384 well plates, Cat #3640). Meanwhile “Gold mix” was prepared shortly before use by adding 1/100 volume of accelerator to the PiColorLock™ Gold reagent. 12 μL/well of the “Gold mix” was added to detection plate containing 50 μL/well of supernatant and incubated at 25° C. for 5 minutes. 5 μL/well stabilizer was added to the detection plate and incubated at 25° C. for 30 minutes. The absorbance at 635 nm was measured on a Spark 10M instrument (TECAN). The percent (%) inhibition at each concentration of a compound was calculated relative to the OD value in the Max and Min control wells contained within each assay plate. The Max control wells contained cells and substrate as 0% inhibition, and the Min control wells only contained cells as 100% inhibition. The concentrations and percent inhibition values for a test compound are plotted and the concentration of a the compound required to achieve 50% inhibition (IC50) was determined with a four-parameter logistic dose response equation.

[3] = human CD73 0.5 nM, AMP 30 μM, PiColorLock phosphate detection, read-out: Potency (IC50, CD73 enzyme assay)

| SMILES | IC50 [1, 3] | IC50 [2] | IC50 [1] |
| --- | --- | --- | --- |
| O=P(O)(O)CP(=O)(O)OC[C@H]1O[C@@H](c2cnc3c(NCc4ccccc4)ncnn23)[C@H](O)[C@@H]1O [Compound 2, (((((2R,3S,4R,1S)-5-(4-(benzylamino)imidazo[2,1-f][1,2,4]triazin-7-yl)-3,4-dihydroxytetrahydrofuran-2-yl)methoxy)(hydroxy)phosphoryl)methyl)phosphonic Acid] | 10 to 99 nM | 1 to 9.9 nM |  |
| COP(=O)(CP(=O)(O)O)OC[C@H]1O[C@@H](c2cnc3c(NC4CCCC4)nc(Cl)nn23)[C@H](O)[C@@H]1O (stereo partly drawn) [Compound 71, (((((2R,3S,4R,1S)-5-(2-chloro-4-(cyclopentylamino)imidazo[2,1-f][1,2,4]triazin-7-yl)-3,4-dihydroxytetrahydrofuran-2-yl)methoxy)(methoxy)phosphoryl)methy)phosphonic Acid] |  |  | 10 to 99 nM |
| COP(=O)(CP(=O)(OC)OC[C@H]1O[C@@H](c2cnc3c(N4CC5CCCC5C4)nc(Cl)nn23)[C@@H](F)[C@@H]1O)OC (stereo partly drawn) [Compound 76, ((2R,3R,4S,5S)-5-(2-chloro-4-(hexahydrocyclopenta[c]pyrrol-2(1H)-yl)imidazo[2,1-f][1,2,4]triazin-7-yl)-4-fluoro-3-hydroxytetrahydrofuran-2-yl)methyl methyl ((dimethoxyphosphoryl)methyl)phosphonate] | > 1000 nM |  |  |
| O=P(O)(O)CP(=O)(O)OC[C@H]1O[C@@H](c2cnc3c(NCC4CCC(O)CC4)nc(Cl)nn23)[C@H](O)[C@@H]1O (stereo partly drawn) [Compound 77, (((((2R,3S,4R,1S)-5-(2-chloro-4-(((4-hydroxycyclohexyl)methyl)amino)imidazo[2,1-f][1,2,4]triazin-7-yl)-3,4-dihydroxytetrahydrofuran-2-yl)methoxy)(hydroxy)phosphoryl)methyl)phosphonic Acid] | < 10 nM |  |  |
| O=P(O)(O)CP(=O)(O)OC[C@H]1O[C@@H](c2cnc3c(NCC4CCCC(O)C4)nc(Cl)nn23)[C@H](O)[C@@H]1O (stereo partly drawn) [Compound 78, (((((2R,3S,4R,5S)-5-(2-chloro-4-(((3-hydroxycyclohexyl)methyl)amino)imidazo[2,1-f][1,2,4]triazin-7-yl)-3,4-dihydroxytetrahydrofuran-2-yl)methoxy)(hydroxy)phosphoryl)methyl) phosphonic acid] | < 10 nM |  |  |
| O=P(O)(O)CP(=O)(O)OC[C@H]1O[C@@H](c2cnc3c(N[C@H]4CC[C@H](N5CCCCC5)C4)nc(Cl)nn23)[C@H](O)[C@@H]1O [Compound 79, (((((2R,3S,4R,1S)-5-(2-chloro-4-(((1S,3S)-3-(piperidin-1-yl)cyclopentyl)amino)imidazo[2,1-f][1,2,4]triazin-7-yl)-3,4-dihydroxytetrahydrofuran-2-yl)methoxy)(hydroxy)phosphoryl)methyl)phosphonic Acid] | < 10 nM |  |  |
| C=Cc1nc(NC2CCCC2)c2ncc([C@@H]3O[C@H](COP(=O)(O)CP(=O)(O)O)[C@@H](O)[C@H]3O)n2n1 [Compound 80, (((((2R,3S,4R,1S)-5-(4-(cyclopentylamino)-2-vinylimidazo[2,1-f][1,2,4]triazin-7-yl)-3,4-dihydroxytetrahydrofuran-2-yl)methoxy)(hydroxy)phosphoryl)methyl)phosphonic Acid] | 10 to 99 nM |  |  |
| O=P(O)(O)CP(=O)(O)OC[C@H]1O[C@@H](c2coc3c(NCc4ccccc4)ncnc23)[C@H](O)[C@@H]1O [Compound 81, (((((2R,3S,4R,5R)-5-(4-(benzylamino)furo[3,2-d]pyrimidin-7-yl)-3,4-dihydroxytetrahydrofuran-2-yl)methoxyxhydroxy)phosphoryl)methyl)phosphonic acid] | 10 to 99 nM |  |  |

More lines, main results first:

| IC50 [1, 3] | IC50 [2] | SMILES | IC50 [1] |
| --- | --- | --- | --- |
| < 10 nM | < 1 nM | O=P(O)(O)CP(=O)(O)OC[C@H]1O[C@@H](c2cnc3c(NC4CCCC4)ncnn23)[C@H](O)[C@@H]1O [Compound 1, (((((2R,3S,4R,5S)-5-(4-(cyclopentylamino)imidazo[2,1-f][1,2,4]triazin-7-yl)-3,4-dihydroxytetrahydrofuran-2-yl)methoxyxhydroxy)phosphoryl)methyl)phosphonic acid] |  |
| < 10 nM | < 1 nM | O=P(O)(O)CP(=O)(O)OC[C@H]1O[C@@H](c2cnc3c(NC4CCCC4)nc(Cl)nn23)[C@H](O)[C@@H]1O [Compound 5, (((((2R,3S,4R,1S)-5-(2-chloro-4-(cyclopentylamino)imidazo[2,1-f][1,2,4]triazin-7-yl)-3,4-dihydroxytetrahydrofuran-2-yl)methoxy)(hydroxy)phosphoryl)methyl)phosphonic acid] |  |
| < 10 nM | < 1 nM | O=P(O)(O)CP(=O)(O)OC[C@H]1O[C@@H](c2cnc3c(NCc4ccccc4)nc(Cl)nn23)[C@H](O)[C@@H]1O [Compound 6, (((((2R,3S,4R,1S)-5-(4-(benzylamino)-2-chloroimidazo[2,1-f][1,2,4]triazin-7-yl)-3,4-dihydroxytetrahydrofuran-2-yl)methoxy)(hydroxy)phosphoryl)methyl)phosphonic Acid] |  |

From patent US20220204539A1, “CD73 INHIBITORS” (BioArdis LLC, priority 2019, published 2022)
